Experiment [1] relates to hypothalamic genes (mRNA levels). Description: Microarray analysis of gene expression in hypothalamus of rats treated chronically with antidepressants. Type of experiment: in vivo, rat. To be noted: rats treated with fluoxetine, bupropion and/or desipramine; i.p. twice daily for four weeks. The text has this:
Membrane microarray analysis was used to compare expression levels of over 8,000 genes in the hypothalamus of rats treated chronically with a specific serotonin reuptake inhibitor (i.e., fluoxetine), a tricyclic antidepressant (i.e., desipramine), and a dopamine reuptake inhibitor (i.e., bupropion).
(§1) Adult Sprague-Dawley male rats (250-300 g) were assigned to one of the following four groups (n=10 per group): 1. Saline injected animals (controls). 2. Bupropion treated animals. 3. Desipramine treated animals, and 4. Fluoxetine treated animals. Bupropion (20 mg/kg/day), Desipramine (10 mg/kg/d), Fluoxetine (10 mg/kg/d) and Saline were injected twice daily intraperitoneal (i.p.) for four weeks. Animals were sacrificed in the AM, the day after the last injection. Brains were obtained by rapid decapitation, and processed for gene array analysis (GAA), RT-PCR and in situ hybridization.
(§2) Four brains from each group were used for GAA, and real time RT-PCR confirmation. The remaining six brains were sectioned for in situ hybridization confirmation of the gene array analysis.
(§3) Array analysis was done using GeneChip® Rat Neurobiology U34 Arrays (Affymetrix). Whole hippocampus were dissected and total RNA samples were extracted using standard methods (Trizol, Invitrogen; Quigen Rneasy Mini Kit). Total RNA from each of the experimental groups were pooled. The column purified total RNA (10 μg) was converted to biotinylated cRNA hybridization probe following the manufacturers protocol. Labeled cRNA (30 ug) was fragmented in fragmentation buffer, and 15 ug were hybridized to the oligonucletide microarray in 300 μl of hybridization solution.
(§4) Samples from each group were run in independently labeled triplicates. The raw intensity data was analyzed with dCHIP software (Li and Wong, 2002).
Genes were identified using a criteria of greater than 20% fold change (90% lower bound confidence limit) and a t-test value yielding a probability of p<0.05.
The microarray analysis results were confirmed by in situ hybridization.

Experiment [2] deals with hippocampal genes (mRNA levels). In words: Microarray analysis (GeneChip Rat Neurobiology U34) of gene expression in hippocampus of rats treated chronically with antidepressants. Type of experiment: in vivo. To be noted: for hippocampal genes commonly regulated by fluoxetine and desipramine (list: Glutathione peroxidase 1 ... Insulin like growth factor II, Somatostatin): 10 mg/kg/d each; for hippocampal genes commonly regulated by fluoxetine and desipramine (list: Glutathione peroxidase 1 ... Insulin like growth factor II, Somatostatin) / hippocampal genes commonly regulated by desipramine and bupropion (list: NG,NG dimethylarginine dimethylaminohydrolase ... Retina S-antigen) / hippocampal genes commonly regulated by fluoxetine and bupropion (list: Transferrin ... Carbonic anhydrase 2): i.p., four weeks, vs saline; for hippocampal genes commonly regulated by fluoxetine and desipramine (list: Glutathione peroxidase 1 ... Insulin like growth factor II, Somatostatin) / hippocampal genes commonly regulated by desipramine and bupropion (list: NG,NG dimethylarginine dimethylaminohydrolase ... Retina S-antigen): >20% fold change, p<0.05; for hippocampal genes commonly regulated by desipramine and bupropion (list: NG,NG dimethylarginine dimethylaminohydrolase ... Retina S-antigen): desipramine 10 mg/kg/d; for hippocampal genes commonly regulated by desipramine and bupropion (list: NG,NG dimethylarginine dimethylaminohydrolase ... Retina S-antigen) / hippocampal genes commonly regulated by fluoxetine and bupropion (list: Transferrin ... Carbonic anhydrase 2): bupropion 20 mg/kg/day; for hippocampal genes commonly regulated by fluoxetine and bupropion (list: Transferrin ... Carbonic anhydrase 2): fluoxetine 10 mg/kg/d, selected results confirmed by real time RT-PCR. How it is done: as §1, §2, §3, §4
Using a criteria of greater than 20% fold change (90% lower bound confidence limit) and a t-test value yielding a probability of p<0.05, we found 28 genes that were regulated by all three antidepressants compared to saline treatment. Nine of these genes were ESTs.
Regulation of these genes can conveniently be confirmed by Real Time RT-PCR, and in situ hybridization. Regulation of two of the genes has been confirmed by RT-PCR.
Background: In qPCR the cycle at which signal appears reflects the starting amount.

[3] abbreviates: rats treated with desipramine and/or bupropion.
[4] abbreviates: rats treated with fluoxetine and/or desipramine.
Setting [5] is: rats treated with fluoxetine, bupropion and/or desipramine, i.p. twice daily for four weeks.
The mark [6] stands for this setting: rats treated with bupropion and/or fluoxetine.

The text below walks through data of patent US20080118434A1 (The Board of the Trustees of The Leland Stanford J, priority 2003, published 2008).

Turning to `CNCCCN1c2ccccc2CCc2ccccc21` [desipramine], in experiment [1], the “number of hypothalamic genes with altered mRNA levels” value (from here on “number of hypothalamic genes”) is 3. The “hippocampal genes commonly regulated by fluoxetine and desipramine (list: Glutathione peroxidase 1 ... Insulin like growth factor II, Somatostatin)” value in experiment [2] is listed as “commonly regulated”. In addition, the “hippocampal genes commonly regulated by desipramine and bupropion (list: NG,NG dimethylarginine dimethylaminohydrolase ... Retina S-antigen)” value in experiment [2] was “commonly regulated”. Further, the entries for the “number of hippocampal genes with altered mRNA levels” value (shortened to “number of hippocampal genes”) in experiment [2] (setting [3]), in experiment [2] (setting [4]) and in experiment [2] (setting [5]) were 46, 33 and 18, respectively.
Regarding `CC(NC(C)(C)C)C(=O)c1cccc(Cl)c1` (stereo not drawn) [bupropion], the “number of hypothalamic genes” value in experiment [1] was found to be 3. For the same compound, in experiment [2], the “hippocampal genes commonly regulated by desipramine and bupropion (list: NG,NG dimethylarginine dimethylaminohydrolase ... Retina S-antigen)” value is reported as “commonly regulated”. The “hippocampal genes commonly regulated by fluoxetine and bupropion (list: Transferrin ... Carbonic anhydrase 2)” value in experiment [2] is recorded as “commonly regulated”. The “number of hippocampal genes” value in experiment [2] (setting [6]) amounted to 11; in experiment [2] (setting [3]) it was 46; in experiment [2] (setting [5]), 18.
Take `CNCCC(Oc1ccc(C(F)(F)F)cc1)c1ccccc1` (stereo not drawn) [fluoxetine]: the “number of hypothalamic genes” value in experiment [1] is reported as 3. Also, the “hippocampal genes commonly regulated by fluoxetine and desipramine (list: Glutathione peroxidase 1 ... Insulin like growth factor II, Somatostatin)” value in experiment [2] is “commonly regulated”. In experiment [2], the “hippocampal genes commonly regulated by fluoxetine and bupropion (list: Transferrin ... Carbonic anhydrase 2)” value is recorded as “commonly regulated”. The “number of hippocampal genes” value amounted to 11 in experiment [2] (setting [6]), 33 in experiment [2] (setting [4]) and 18 in experiment [2] (setting [5]).
